Results published in US20160214958A1, “COMPOUNDS AND USE FOR TREATING CANCER” (GLIONOVA AB, priority 2013, published 2016).
Read-outs that look alike come from different tables or passages of the source.

Assays:
[1] = system: Caspase-3 and Caspase-7; assay: Caspase-3 and Caspase-7 enzymatic activity in GSC; type: cell-based, human; conditions: 5-30 μM, 2 to 600 minutes
Experimental: A distinctive feature of apoptosis is the rapid loss of ATP associated with decoupling of the respiratory chain. Death of GSCs was therefore examined in the presence of the apoptosis inhibitor Q-VAD. […] However, Q-VAD only modestly rescued S10 treated cells from death at 3 and 7 hrs. […] Caspase-3 and Caspase-7 enzymatic activity was measured at 2, 15, 30, 60, 120, 120, 240, 360 and 600 minutes after addition of S10 at increasing concentrations from 5-30 μM. […] The rapid depletion of ATP by S10 led us to therefore examine the mitochondria. The accumulation of tetramethylrhodamine ethyl ester (TMRE) in mitochondria and […] is driven by their membrane potential. TMRE incorporation in mitochondria was largely unaffected by S10. […]
For measuring cell viability, cytotoxicity and apoptosis in GSC/fibroblast/mGlia cells were grown in 384-well microtiter plates using procedure described above. […] Cell viability, cytotoxcity and apoptosis were measured using CellTiter-Glo® Luminescent Cell Viability Assay (Promega), CytoTox-Glo Cytotoxicity Assay and […], according to manufacturer's instructions. […] Luminescence was measured using a Victor3 FA (Perkin Elmer) microtiterplate reader and the level of released Caspase 3/7 quantified relative to control using GraphPad Prism (v6.02) software.

[2] = Pharmacokinetic evaluation of Vacquinol-1 stereoisomers, plasma and brain; type: in vivo, NMRI (SR/RS) or BALB/c (Vrac) mice; conditions: for Cmax Brain / tlast Brain / tlast Plasma / AUC(0-t) / half-life / Tmax / Cmax: mice
Experimental: The pharmacokinetics of Vacquinol-1 (racemic), Vacquinol-1RS and Vacquinol-1SR, were determined in NMRI (SR/RS) or BALB/c (Vrac) mice following single intravenous (i.v.) or per oral (p.o) administration of 2 or 20 mg/kg Vacquinol-1, respectively. Blood and brain samples were taken from animals at the following nominal time points: 15, 30, and 60 minutes, and 2, 4, 6, 8, 24, 48, 72 and 144 hours after dosing (n=3/time-point). Bioanalytical quantification of Vacquinol-1 was analysed in plasma and brain samples by a UPLC-MS/MS.
Pharmacokinetics were calculated by non-compartmental analysis (NCA) from composite (mean) profiles. Nominal sampling times and dose levels have been used for the NCA calculations.

[3] = system: glioma stem cell line U3013; assay: In vitro cancer cell and CSC viability assay (ATP quantification, CellTiterGlo); type: cell-based, human; conditions: Homo sapiens; U3013, 24 hours exposure; read-out: In vitro efficacy (viability) EC50
Experimental: The ability of Examples S1-S23 to selectively induce cytotoxicity in glioma/glioblastoma cancer cells or glioma/glioblastoma cancer stem cells was determined by quantification of ATP production in glioma stem cell line U3013 in the presence of using CellTiterGlo reagent (Promega). Cells were exposed to compound in serial dilution in the range 1 nM to 50 µM for 24 hours and viability assessed with respect to negative control (dmso, no cell death) and positive control (staurosporine, full cell death). […] The EC50 of S10 remained largely similar at 2, 3 and 4 days of incubation. […] The individual isomers (S21-S23) of racemic S10 were evaluated in order to determine the enantiospecific pharmacology of the individual isomers.
Negative (100% DMSO) and positive (10 mM S10 in 100% DMSO) controls were placed in rows 1-4 and 5-8, respectively, of column 12. The wells were diluted with 190 μl of the corresponding growth media and 5 μl of each well of compound solution transferred to quadruplicate wells of a sterile 384-well black clear bottom plate (BD Falcon) containing GSC at 70% confluency in 45 μl growth media. The plate was incubated for 24 hours, after which the plate was removed from the incubator and each well imaged in bright-field using an Operetta Imaging system (PerkinElmer) at 37° C. and 5% CO2 to determine vacuole accumulation at each concentration. The plate was then allowed to cool to room temperature and each well treated with 25 μl freshly CellTiterGlo (Promega) reagent. The plate was shaken for 15 minutes and luminescence measured using a Victor3 (Perkin Elmer) microtiterplate reader. Total luminescence was normalized relative to control and curve fitting performed using GraphPad Prism (v6.02) software.

Question: For `OC(c1cc(-c2ccc(Cl)cc2)nc2ccccc12)C1CCCCN1` (racemic) [Compound S10, (2-(4-chlorophenyl)quinolin-4-yl)(piperidin-2-yl)methanol], which “caspase activity relative to DMSO control” value [1] is on record?
Answer: no effect on caspase activity

Question: And the “Cmax Brain” value ([2]; 2 mg/kg i.v.)?
Answer: 0.514 µg/mL

Question: And the “tlast Brain” value ([2]; 2 mg/kg i.v.)?
Answer: 144 h

Question: And the “tlast Plasma” value ([2]; 2 mg/kg i.v.)?
Answer: 144 h

Question: And the “Cmax Brain” value ([2]; 20 mg/kg p.o.)?
Answer: 1.86 µg/mL

Question: And the “tlast Brain” value ([2]; 20 mg/kg p.o.)?
Answer: 144 h

Question: And the “tlast Plasma” value ([2]; 20 mg/kg p.o.)?
Answer: 144 h

Question: What about the Kp ([2]; NMRI (single stereoisomers SR/RS), BALB/c (racemate), mouse, brain and plasma, 20 mg/kg, after oral dosing, read-out: relative brain/plasma exposure ratio (AUClast(brain)/AUClast(plasma))) of the same compound?
Answer: 0.6

Question: What about the AUC(0-t) ([2]; NMRI (single stereoisomers SR/RS), BALB/c (racemate), mouse, brain, iv, 2 mg/kg i.v., read-out: AUClast Brain) of the same compound?
Answer: 20.4 µg·h/mL

Question: And the half-life ([2]; NMRI (single stereoisomers SR/RS), BALB/c (racemate), mouse, brain, iv, 2 mg/kg i.v., read-out: t1/2 Brain (converted))?
Answer: 63 h

Question: And the AUC(0-t) ([2]; NMRI (single stereoisomers SR/RS), BALB/c (racemate), mouse, brain, po, 20 mg/kg p.o., read-out: AUClast Brain)?
Answer: 167 µg·h/mL

Question: What about the Tmax ([2]; NMRI (single stereoisomers SR/RS), BALB/c (racemate), mouse, brain, po, 20 mg/kg p.o., read-out: tmax Brain) of the same compound?
Answer: 48 h

Question: What about the Cmax ([2]; NMRI (single stereoisomers SR/RS), BALB/c (racemate), mouse, plasma, iv, 2 mg/kg i.v.) of the same compound?
Answer: 0.467 µg/mL

Question: And the AUC(0-t) ([2]; NMRI (single stereoisomers SR/RS), BALB/c (racemate), mouse, plasma, iv, 2 mg/kg i.v., read-out: AUClast Plasma)?
Answer: 64.5 µg·h/mL

Question: And the half-life ([2]; NMRI (single stereoisomers SR/RS), BALB/c (racemate), mouse, plasma, iv, 2 mg/kg i.v., read-out: t1/2 Plasma (converted))?
Answer: 52 h

Question: What about the Cmax ([2]; NMRI (single stereoisomers SR/RS), BALB/c (racemate), mouse, plasma, po, 20 mg/kg p.o.) of the same compound?
Answer: 3.28 µg/mL

Question: What about the AUC(0-t) ([2]; NMRI (single stereoisomers SR/RS), BALB/c (racemate), mouse, plasma, po, 20 mg/kg p.o., read-out: AUClast Plasma) of the same compound?
Answer: 292 µg·h/mL

Question: And the Tmax ([2]; NMRI (single stereoisomers SR/RS), BALB/c (racemate), mouse, plasma, po, 20 mg/kg p.o., read-out: tmax Plasma)?
Answer: 24 h

Question: What about the “Cmax exposures ratio (Cmax(brain)/Cmax(plasma))” value ([2]; after oral dosing) of the same compound?
Answer: 0.6

Question: What about the EC50 [3] of the same compound?
Answer: 2.36 µM
